Experimental data: patent US10251874B2, “Crystalline forms of a JAK inhibitor compound” (THERAVANCE BIOPHARMA R&D IP, LLC, priority 2017, dated 2019)
Read-outs that look alike come from different tables or passages of the source.

Tests used:
[1] = tested on: IL-13 induced STAT6 phosphorylation in BEAS-2B human lung epithelial cells; assay: Assay 2: Cellular JAK potency assay: inhibition of IL-13 (AlphaScreen); assay type: cell-based; settings: BEAS-2B cells, read-out: pIC50, inhibition of IL-13 induced STAT6 phosphorylation (converted)
Procedure: The AlphaScreen JAM cellular potency assay was carried out by measuring interleukin-13 (IL-13, R&D Systems) induced STAT6 phosphorylation in BEAS-2B human lung epithelial cells (ATCC). The anti-STAT6 antibody (Cell Signaling Technologies) was conjugated to AlphaScreen acceptor beads (Perkin Elmer), while the anti-pSTAT6 (pTyr641) antibody (Cell Signaling Technologies) was biotinylated using EZ-Link Sulfo-NHS-Biotin (Thermo Scientific).
BEAS-2B cells were grown at 37° C. in a 5% CO2 humidified incubator in 50% DMEM/50% F-12 medium (Life Technologies) supplemented with 10% FBS (Hyclone), 100 U/mL penicillin, 100 μg/mL streptomycin (Life Technologies), and 2 mM
GlutaMAX (Life Technologies). On day 1 of the assay, cells were seeded at a 7,500 cells/well density in white poly-D-lysine-coated 384-well plates (Corning) with 25 μL medium, and were allowed to adhere overnight in the incubator. […] After a minimum of 2 h incubation, the assay plates were read on the EnVision plate reader. AlphaScreen luminescence signals were recorded and utilized to calculate the percent inhibition values based on DMSO and background controls.
For dose-response analysis, percent inhibition data were plotted vs. compound concentrations, and IC50 values were determined from a 4-parameter robust fit model with the Prism software. Results may also be expressed as the negative logarithm of the IC50 value, pIC50.

[2] = tested on: IL-2/anti-CD3 stimulated IFNγ in human PBMCs; assay: Assay 3: Inhibition of IL-2/anti-CD3 stimulated IFNγ in human PBMCs; assay type: cell-based; settings: PBMC, 24 h stimulation, ELISA, read-out: pIC50, inhibition of IL-2/anti-CD3 stimulated IFNγ (converted)
Excerpt: Data are expressed as pIC50 (negative decadic logarithm IC50) values.

[3] = tested on: IL-2, IL-4, IL-6, and IFNγ signaling; assay: Cellular assays of Assays 3 to 7 (summary statement); assay type: cell-based; settings: Homo sapiens, summary over cellular Assays 3 to 7
[4] = Assay 8: Pharmacokinetics in plasma and lung in mouse; assay type: in vivo, BALB/c mice; settings: BALB/c, 10 µg/mouse, oral aspiration, 0.2 mg/mL, 50 uL, read-out: exposure in lung relative to exposure in plasma (lung AUC to plasma AUC ratio)
Procedure: Plasma and lung levels of test compounds and ratios thereof were determined in the following manner. BALB/c mice from Charles River Laboratories were used in the assay. Test compounds were individually formulated in 20% propylene glycol in pH 4 citrate buffer at a concentration of 0.2 mg/mL and 50 uL of the dosing solution was introduced into the trachea of a mouse by oral aspiration. At various time points (typically 0.167, 2, 6, 24 hr) post dosing, blood samples were removed via cardiac puncture and intact lungs were excised from the mice. Blood samples were centrifuged (Eppendorf centrifuge, 5804R) for 4 minutes at approximately 12,000 rpm at 4° C. to collect plasma. Lungs were padded dry, weighed, and homogenized at a dilution of 1:3 in sterile water. Plasma and lung levels of test compound were determined by LC-MS analysis against analytical standards constructed into a standard curve in the test matrix. A lung to plasma ratio was determined as the ratio of the lung AUC in μg hr/g to the plasma AUC in μg hr/mL, where AUC is conventionally defined as the area under the curve of test compound concentration vs. time.

CCc1cc(O)c(F)cc1-c1ccc2c(-c3nc4c([nH]3)CCN(C3CCN(C)CC3)C4)n[nH]c2c1 [Compound 1, 5-ethyl-2-fluoro-4-(3-(5-(1-methylpiperidin-4-yl)-4,5,6,7-tetrahydro-1H-imidazo[4,5-c]pyridin-2-yl)-1H-indazol-6-yl)phenol]
IC50 [1]: 6.31 nM | IC50 [2]: ~50.1 nM | IC50 ([3]; read-out: IC50 for inhibition of IL-2, IL-4, IL-6, and IFNγ signaling): ≤ 200 nM | IC50 ([3]; read-out: pIC50 for inhibition of IL-2, IL-4, IL-6, and IFNγ signaling (converted)): ≤ 200 nM | Kp [4]: ~55
